Measurements taken from US20160067347A1, “APJ RECEPTOR AGONISTS AND USES THEREOF” (AMGEN INC., priority 2012, published 2016).

How the values were obtained:
[1] = background statement; cited from earlier work
in vitro = settings: rat, plasma
Description: Apelin peptides were spiked into freshly prepared mouse, rat, dog and human EDTA plasma to a final concentration of 5 μM. The plasma samples were then incubated at 37° C. over a period of 4 hr. Up to 8 time points were sampled to facilitate estimation of in vitro half life in plasma matrices. In a typical experiment, aliquot of 100 μL of plasma sample was taken from the incubation vial, followed by addition of 300 μL of MeOH containing internal standard. The quenched sample was centrifuged at 5500 g for 15 min after 15 min vortex in room temperature. The supernatant was then analyzed by high resolution LC-MS.

[2] = In vitro plasma stability of apelin peptides (Table 15; plasma species not given); type: in vitro ADME; settings: 5 μM in plasma, 37° C.
Description: (metabolite data not shown).

Q: With `CSCC[C@H](NC(=O)[C@@H]1CCCN1C(=O)CNC(=O)[C@H](CCCCN)NC(=O)[C@H](Cc1cnc[nH]1)NC(=O)[C@H](CO)NC(=O)[C@H](CC(C)C)NC(=O)[C@H](CCCNC(=N)N)NC(=O)[C@@H]1CCCN1C(=O)[C@H](CCCNC(=N)N)NC(=O)[C@@H](N)CCC(N)=O)C(=O)N1CCC[C@H]1C(=O)N[C@@H](Cc1ccccc1)C(=O)O` [Apelin-13] as the molecule, how does the plasma half-life [1] read?
A: Its plasma half-life is under 5 min.

Q: And the remaining at 0.25 h, 5 μM (in vitro)?
A: Its remaining at 0.25 h, 5 μM is 0.1%.

Q: And the “in vitro plasma stability, % at 15 minutes” value [2]?
A: The value was 0.1%.
